What was measured:
hDFn cells [1] = assay: PrestoBlue assay, metabolic activity; type: cell-based, human; settings: vs control
Description: (§1) PrestoBlue™ and CyQUANT™ Direct Assay. PrestoBlue™ and CyQuant™ (PBCQ) direct confirmation assay (from ThermoFisher®) for cell viability was used to assess the biocompatibility of hDFn cells in DMEM complete media with varying concentrations of rhamnolipids. Passage 5 hDFn cells were seeded at 11,200 cells/mL density into black wall, clear bottom 96-well tissue culture plates. The cells were placed inside the standing incubator at 37° C. and 5% CO2 until reaching 70-90% confluence. […] The plate layout included blank wells containing DMEM complete media and the corresponding rhamnolipid concentrations. Following 24 hours, 100 μL was removed from each well and replaced with 10 μL of the PrestoBlue reagent. The plates were then incubated for 20 minutes at 37° C. and 5% CO2 prior to being placed in the Biotek® Synergy HT fluorescence microplate reader at 590 nm with a gain value of 35. Afterward, 100 μL of the CyQuant reagent composition was added to all wells and incubated for 60 minutes. The plates were read using the same microplate reader at 528 nm with a gain of 70. The relative fluorescence units (RFU) were produced for all wells, correlating with the metabolic output per unit of DNA.
(§2) Statistical Analysis. Statistically significant differences were determined using GraphPad Prism. The results of the cellular migration assay were analyzed with a one-way ANOVA and Tukey post hoc evaluation. The PBCQ assay was analyzed using a one-way ANOVA and Tukey post hoc evaluation. For all experiments, a p-value<0.05 was considered statistically significant in this study.
(§3) The control scaffold, the SEM image of which is shown in FIG. 5A, was not impregnated with rhamnolipids, or had hDFn cells seeded onto it. In particular, the observable porosity is not structurally different in FIG. 5A compared to the other images (FIGS. 5B-5E) depicting impregnated scaffolds without cells. As the percentage of rhamnolipids increased, the porosity of the scaffold remained relatively similar to the control. […] Visually, the hDFn cells appeared to have been able to adhere and colonize onto impregnated scaffolds which could be further explored to better understand the cytocompatibility of rhamnolipids and if their morphology is influenced by the concentration of the surfactant. PrestoBlue™ and CyQUANT™ Direct Assay. The PrestoBlue™ and CyQUANT™ Direct assays were used to determine the cellular compatibility of hDFn cells when in the presence of rhamnolipids. The PrestoBlue™ assay is a resazurin-based solution when upon entering a living cell, the reagent is reduced to resorufin which is red in color and fluorescent. The overall health of the cell can be observed by changes in fluorescence and subsequently absorbance. […] The CyQUANT™ Direct assay is a cell-permeant green nucleic acid stain that is combined with a masking dye reagent. The masking dye stops the staining of non-viable cells or cells with compromised cell membranes, resulting in only the viable cells being stained. The CyQUANT™ Direct assay measures proliferation as well as membrane integrity. The data was evaluated using GraphPad Prism to run a one-way ANOVA.

hDFn cells [2] = assay: CyQUANT Direct assay, DNA content of living cells; type: cell-based, human; settings: vs control
Description: as §1, §2, §3

[3] = system: neonatal human dermal fibroblast (hDFn) cells; assay: Cellular migration assay (scratch, mock wound), with or without uranyl nitrate (depleted uranium) exposure; type: cell-based
Description: Preparation of Depleted Uranium Solution. Approximately 0.005 g of uranyl nitrate (UN) crystals, purchased from American Scientific were weighed and solubilized in 40 mL of Dulbecco's modified eagle medium (DMEM) containing 10% fetal bovine serum (FBS) (DMEM complete) from Gibco® to create an initial working stock solution. Uranyl nitrate stock underwent 60 seconds of pipette mixing to confirm proper disintegration prior to vacuum sterilization using a 0.22 μm filter. Molecular weight was used to calculate the appropriate starting molarity before utilizing weight-volume concentrations to obtain the following experimental dilutions: 0.1 μM, 0.2 μM, 1.0 μM, 2.0 μM, 10 μM, 20 μM made from the sterile-filtered stock solution.
Cell Culture of Neonatal Human Dermal Fibroblasts (hDFn). Passage one neonatal human dermal fibroblast (hDFn) cells were purchased from Cell Applications, Inc. (P1, lot #1734). The hDFn cells were incubated at 37° C., 5% CO2, and passaged using a T-75 tissue culture flask from Corning, completing media changes every 48 hours until 90% confluency was met. Cells were subcultured at a density of 10×10^5 cells/mL, frozen in DMEM containing 10% DMSO, and stored at −80° C. for 24 hours before being placed in liquid nitrogen vapor phase for long-term preservation. The subsequent process was repeated until passage 4 isolates were frozen down.
Rhamnolipid Solution. About 0.0125 g of rhamnolipids (Rha-C10-C10) from Glycosurf were weighed and diluted in 50 mL of 1× phosphate-buffered saline (PBS) to obtain a 200 μM rhamnolipid stock solution. The solution was heated prior to being vortexed for maximum dissolution and sterilized through a vacuum using a 0.22 μm filter. The molarity of rhamnolipid stock solution was found using actual mass ([…]) and molecular weight to calculate experiment dilutions of 6.25 μM, 50 μM, and 100 μM.
Cellular Migration Assay. Human neonatal dermal fibroblasts (hDFn) passage 4, were seeded into a T-75 flask at 10×10^5 cells/mL density and grown in a standing incubator at 37° C., 5% CO2. Once 90% confluence was reached, hDFn were subcultured into 12-well plates, and respective UN treatments with or without rhamnolipids were added. After 24 hours, contents were removed, and the monolayer of fibroblasts was scratched vertically using a sterile pipet tip creating the mock wound (FIG. 1). Wells were then washed twice with Hanks' Balanced Salt Solution (HBSS). Respective treatments were added back into wells and cellular migration rates were monitored and imaged over time (0 hours, 12 hours, and 24 hours). Percent closure rates were collected using MATLAB®.
as §2

[4] = system: Human dermal neonatal fibroblasts (hDFn); assay: Rhamnolipid vs. thioglycolipid comparative scratch assay; type: cell-based; settings: 6.25-50 μM, over 24 hours, particularly at the 4-hour and 8-hour time marks, FIGS. 9, 10A-10B
Description: Rhamnolipid vs. Thioglycolipid Comparative Scratch Assays. Human dermal neonatal fibroblasts (hDFn) were seeded in 3×12-well plates at 10,000 cell/cm^2. Media (Dulbecco's Modified Eagle Medium (DMEM)) was changed every 48 hours. Plates were imaged every 4 hours for 24 hours. Plates were analyzed via MATLAB® and RStudio®.

CCCCCCC[C@H](CC(=O)O)OC(=O)C[C@@H](CCCCCCC)O[C@@H]1O[C@@H](C)[C@H](O)[C@@H](O)[C@H]1O [rhamnolipids, Rha-C10-C10]
statistically significant decrease: metabolic activity (RFU) (hDFn cells [1]; maximum concentration of rhamnolipids (100 μM), n=12 (FIG. 8A)) | cellular DNA content (RFU) (hDFn cells [2]; 100 μM rhamnolipids, n=12 (FIG. 8B))
statistically significant increase: metabolic activity (RFU) (hDFn cells [1]; 6.25 μM rhamnolipids, 24 hours, n=6 (FIG. 7A), Tukey's p<0.001) | metabolic activity (RFU) (hDFn cells [1]; 6.25 μM rhamnolipids, n=12 (FIG. 8A), Tukey's p<0.001) | metabolic activity (RFU) (hDFn cells [1]; 50 μM rhamnolipids, 24 hours, n=6 (FIG. 7A), Tukey's p<0.001) | metabolic activity (RFU) (hDFn cells [1]; 50 μM rhamnolipids, n=12 (FIG. 8A), Tukey's p<0.001) | cellular DNA content (RFU) (hDFn cells [2]; low concentration of rhamnolipids (6.25 μM), 24 hours, n=6 (FIG. 7B), Tukey's p<0.001) | cellular migration (percent closure) ([3]; absence of UN, high dose of rhamnolipids (50 μM), 12 hours post-wound, vs control, Tukey's p=0.001) | percent closure (migration rate) ([3]; hDFn exposed to 0.1 μM UN + 50 μM rhamnolipids, 12 hours post-wound, vs control, p-value=0.021) | percent closure (migration rate) ([3]; hDFn exposed to 1.0 μM UN + 6.25 μM rhamnolipids, 12 hours post-wound, p-value=0.012) | percent closure (migration rate) ([3]; hDFn exposed to 1.0 μM UN + 50 μM rhamnolipids, 12 hours post-wound, vs control, p-value<0.001) | percent closure (migration rate) ([3]; hDFn exposed to 10 μM UN + 50 μM rhamnolipids, 12 hours post-wound, vs control, p-value=0.009)
no statistically significant difference: living DNA content (RFU) (hDFn cells [2]; high concentration of rhamnolipids (50 μM), 24 hours, n=6 (FIG. 7B)) | living DNA content (RFU) (hDFn cells [2]; high concentration of rhamnolipids (50 μM), n=12 (FIG. 8B)) | living DNA content (RFU) (hDFn cells [2]; low concentration of rhamnolipids (6.25 μM), n=12 (FIG. 8B)) | mean percent closure ([3]; 24 hours post-wound, across the different treatments (considered closed)) | mean percent closure ([3]; absence of UN, low concentration of rhamnolipids (6.25 μM), vs control)
faster healing: wound healing (percent closure) compared with thioglycolipid compositions [4]
